Values joined by “and” are separate entries in the source; they are usually repeats but may differ in a detail not shown here. Equal values may be shown once.
Test system: patients with psoriatic arthritis
Assay: Phase 2 trial in psoriatic arthritis: PASI75 response at week 16
Format: in vivo, human
Conditions: for Interaction Term for PASI75 response (ratio of odds ratios): week 16; for PASI75 response rate over time: placebo, sixteen-week treatment period
Experimental: In a double-blind Phase 2 trial, 203 patients with psoriatic arthritis were randomized into three groups: deucravacitinib 6 mg once daily (N=70), deucravacitinib 12 mg once daily (N=67), or placebo (N=66). All subjects had active psoriatic arthritis according to the Classification Criteria for Psoriatic Arthritis (CASPAR); for active disease, these criteria required ≥3 tender joint count, ≥3 swollen joint count, and a C-reactive protein level above 3 mg/L. Other inclusion criteria included the following: presence of at least one plaque psoriasis lesion, and prior treatment failure with a non-biologic disease modifying anti-rheumatic drug, a non-steroidal anti-inflammatory drug, or a steroid. With respect to treatment history, approximately 70% of subjects had not received prior treatment with a biologic and were biologic naïve, while up to 30% of subjects had failed or had been intolerant to one TNF-inhibitor (TNF=Tumor necrosis factor, also known as TNFα). Randomization was stratified by prior TNF-inhibitor use (experienced/naïve) and body weight (<90 kg and ≥90 kg).
Clinical measures included the Psoriasis […] (PASI) score for skin psoriasis, American College of Rheumatology 20 (ACR20) response, Psoriatic Arthritis Disease Activity Score (PASDAS), Health Assessment Questionnaire-Disability Index (HAQ-DI), and Disease Activity Score 28 CRP (DAS28). To evaluate the predictive value of different protein measurements for the clinical response to deucravacitinib, baseline protein concentrations for responders and non-responders, as defined by ACR20 or PASI75 at week 16, were compared for each arm (placebo, 6 mg deucravacitinib once-daily, and 12 mg deucravacitinib once-daily).
In addition, a logistic regression model was fit, to determine whether baseline disease score (dichotomized by the median baseline score, into baseline score high and baseline score low groups) was associated with response status. The model generated an odds ratio for each dosed arm versus placebo, in baseline score high and baseline score low groups.
Boxplots for baseline protein level by response were generated with a horizontal line indicating the median protein level at baseline. For each treatment arm, a two-sample t-test was performed to test whether mean baseline serum protein level was different in responders versus non-responders. A Wilcoxon rank sum test (Mann-Whitney U test) was also performed to evaluate the difference in median serum protein level between responders and non-responders. Further, barplots of ACR20 and PASI75 response rate at week 16 for each treatment arm were generated for all subjects (protein level high and protein level low subjects, dichotomized according to median baseline level). Line plots of ACR20 and PASI75 response rate over time for each treatment arm were generated for protein level high and protein level low groups. Logistic regression models were also fit to evaluate associations between baseline protein levels and clinical outcome.
For certain analyses described herein, patients were dichotomized by median values (e.g., of the proteins listed above or other measures) into “high” and “low” groups, such that the high group had values above the median and the low group had values less than or equal to the median.
In addition, logistic regression models were fit for response measures ACR20 and PASI75, to generate the odds ratio of each of the deucravacitinib treatment arms versus placebo, in BD2-high and BD2-low groups. The following logistic regression models were used: • For ACR20 response status: ACR20 (Y/N)=treatment arm+BD2 group+treatment arm*BD2 group+TNF-inhibitor use+baseline weight (continuous). • For PASI75 response status: PASI75 (Y/N)=treatment arm+BD2 group+treatment arm*BD2 group+TNF-inhibitor use+baseline weight (continuous). […]

[1] = 6 mg QD, Above median baseline CRP level
[2] = 6 mg QD, Below median baseline CRP level
[3] = 12 mg QD, Above median baseline CRP level
[4] = 12 mg QD, Below median baseline CRP level

## [2H]C([2H])([2H])NC(=O)c1nnc(NC(=O)C2CC2)cc1Nc1cccc(-c2ncn(C)n2)c1OC [deucravacitinib, 6-(cyclopropanecarboxamido)-4-((2-methoxy-3-(1-methyl-1H-1,2,4-triazol-3-yl)phenyl)amino)-N-(methyl-d3)pyridazine-3-carboxamide]
6 mg QD vs placebo: BD2 high versus BD2 low
  Interaction Term for PASI75 response (ratio of odds ratios): 11.628
6 mg QD vs placebo: CRP high versus CRP low
  Interaction Term: treatment arm*CRP group, PASI75: 1.67
6 mg QD vs placebo: CRP-high versus CRP-low, adjusted for baseline PASI score
  Interaction Term: treatment arm*CRP group, PASI75: 1.67
6 mg QD vs placebo: IL-17A high versus IL-17A low, adjusted for baseline PASI score
  Interaction Term: treatment arm*IL-17A group, PASI75: 22.889
6 mg QD vs placebo: IL-17A high versus IL-17A low
  Interaction Term for PASI75 response (ratio of odds ratios): 22.851
6 mg QD vs placebo: baseline PASI high versus PASI low
  Interaction Term for PASI75 response (ratio of odds ratios): 5.51 and 5.514
6 mg QD, 12 mg QD, BD2-high and BD2-low groups (FIG. 9)
  PASI75 response rate over time: dose-dependent PASI75 response rate over time was observed in the BD2-high group but not in the BD2-low group
6 mg QD, 12 mg QD, CRP-high and CRP-low groups (FIG. 40)
  PASI75 response rate over time: higher response rates than the placebo arm
6 mg QD, 12 mg QD, IL-17A-high and IL-17A-low groups (FIG. 23)
  PASI75 response rate over time: dose-dependent PASI75 response over time was observed in IL-17A-high but not in IL-17A-low PsA patients
6 mg QD, 12 mg QD, IL-19-high and IL-19-low groups (FIG. 16)
  PASI75 response rate over time: dose-dependent PASI75 response over time was observed in IL-19-high but not in IL-19-low PsA patients
[1]
  Number of subjects, PASI75 Non-responder at week 16: 17
  Number of subjects, PASI75 Responder at week 16: 16
[2]
  Number of subjects, PASI75 Non-responder at week 16: 17
  Number of subjects, PASI75 Responder at week 16: 9
6 mg QD, CRP-high-PASI-high
  Number of subjects, PASI75 Non-responder: 4
  Number of subjects, PASI75 Responder: 11
6 mg QD, CRP-high-PASI-low
  Number of subjects, PASI75 Non-responder: 13
  Number of subjects, PASI75 Responder: 5
6 mg QD, CRP-low-PASI-high
  Number of subjects, PASI75 Non-responder: 7
  Number of subjects, PASI75 Responder: 5
6 mg QD, CRP-low-PASI-low
  Number of subjects, PASI75 Non-responder: 10
  Number of subjects, PASI75 Responder: 4
6 mg QD, PASI75 non-responder at week 16, above baseline PASI median 6.6
  Number of subjects: 11
6 mg QD, PASI75 non-responder at week 16, above median baseline BD2 level
  Number of subjects: 17
6 mg QD, PASI75 non-responder at week 16, above median baseline IL-17A level
  Number of subjects: 14
6 mg QD, PASI75 non-responder at week 16, above median baseline IL-19 level
  Number of subjects: 18
6 mg QD, PASI75 non-responder at week 16, below baseline PASI median 6.6
  Number of subjects: 23
6 mg QD, PASI75 non-responder at week 16, below median baseline BD2 level
  Number of subjects: 16
6 mg QD, PASI75 non-responder at week 16, below median baseline IL-17A level
  Number of subjects: 20
6 mg QD, PASI75 non-responder at week 16, below median baseline IL-19 level
  Number of subjects: 16
6 mg QD, PASI75 non-responder, BD2-high-PASI-high
  Number of subjects: 8
6 mg QD, PASI75 non-responder, BD2-high-PASI-low
  Number of subjects: 12
6 mg QD, PASI75 non-responder, BD2-low-PASI-high
  Number of subjects: 3
6 mg QD, PASI75 non-responder, BD2-low-PASI-low
  Number of subjects: 11
6 mg QD, PASI75 non-responder, IL-17A-high-PASI-high
  Number of subjects: 8
6 mg QD, PASI75 non-responder, IL-17A-high-PASI-low
  Number of subjects: 6
6 mg QD, PASI75 non-responder, IL-17A-low-PASI-high
  Number of subjects: 3
6 mg QD, PASI75 non-responder, IL-17A-low-PASI-low
  Number of subjects: 17
6 mg QD, PASI75 non-responder, IL-19-high-PASI-high
  Number of subjects: 9
6 mg QD, PASI75 non-responder, IL-19-high-PASI-low
  Number of subjects: 9
6 mg QD, PASI75 non-responder, IL-19-low-PASI-high
  Number of subjects: 2
6 mg QD, PASI75 non-responder, IL-19-low-PASI-low
  Number of subjects: 14
6 mg QD, PASI75 responder at week 16, above baseline PASI median 6.6
  Number of subjects: 16
6 mg QD, PASI75 responder at week 16, above median baseline BD2 level
  Number of subjects: 22
6 mg QD, PASI75 responder at week 16, above median baseline IL-17A level
  Number of subjects: 19
6 mg QD, PASI75 responder at week 16, above median baseline IL-19 level
  Number of subjects: 19
6 mg QD, PASI75 responder at week 16, below baseline PASI median 6.6
  Number of subjects: 9
6 mg QD, PASI75 responder at week 16, below median baseline BD2 level
  Number of subjects: 15
6 mg QD, PASI75 responder at week 16, below median baseline IL-17A level
  Number of subjects: 6
6 mg QD, PASI75 responder at week 16, below median baseline IL-19 level
  Number of subjects: 6
6 mg QD, PASI75 responder, BD2-high-PASI-high
  Number of subjects: 14
6 mg QD, PASI75 responder, BD2-high-PASI-low
  Number of subjects: 4
6 mg QD, PASI75 responder, BD2-low-PASI-high
  Number of subjects: 2
6 mg QD, PASI75 responder, BD2-low-PASI-low
  Number of subjects: 5
6 mg QD, PASI75 responder, IL-17A-high-PASI-high
  Number of subjects: 12
6 mg QD, PASI75 responder, IL-17A-high-PASI-low
  Number of subjects: 7
6 mg QD, PASI75 responder, IL-17A-low-PASI-high
  Number of subjects: 4
6 mg QD, PASI75 responder, IL-17A-low-PASI-low
  Number of subjects: 2
6 mg QD, PASI75 responder, IL-19-high-PASI-high
  Number of subjects: 13
6 mg QD, PASI75 responder, IL-19-high-PASI-low
  Number of subjects: 6
6 mg QD, PASI75 responder, IL-19-low-PASI-high
  Number of subjects: 3
6 mg QD, PASI75 responder, IL-19-low-PASI-low
  Number of subjects: 3
12 mg QD vs placebo: BD2 high versus BD2 low
  Interaction Term for PASI75 response (ratio of odds ratios): 14.233
12 mg QD vs placebo: CRP high versus CRP low
  Interaction Term: treatment arm*CRP group, PASI75: 2.63
12 mg QD vs placebo: CRP-high versus CRP-low, adjusted for baseline PASI score
  Interaction Term: treatment arm*CRP group, PASI75: 3.18
12 mg QD vs placebo: IL-17A high versus IL-17A low, adjusted for baseline PASI score
  Interaction Term: treatment arm*IL-17A group, PASI75: 13.222
12 mg QD vs placebo: IL-17A high versus IL-17A low
  Interaction Term for PASI75 response (ratio of odds ratios): 12.089
12 mg QD vs placebo: baseline PASI high versus PASI low
  Interaction Term for PASI75 response (ratio of odds ratios): 6.42
[3]
  Number of subjects, PASI75 Non-responder at week 16: 7
  Number of subjects, PASI75 Responder at week 16: 18
[4]
  Number of subjects, PASI75 Non-responder at week 16: 14
  Number of subjects, PASI75 Responder at week 16: 13
12 mg QD, CRP-high-PASI-high
  Number of subjects, PASI75 Non-responder: 4
  Number of subjects, PASI75 Responder: 10
12 mg QD, CRP-high-PASI-low
  Number of subjects, PASI75 Non-responder: 3
  Number of subjects, PASI75 Responder: 8
12 mg QD, CRP-low-PASI-high
  Number of subjects, PASI75 Non-responder: 2
  Number of subjects, PASI75 Responder: 10
12 mg QD, CRP-low-PASI-low
  Number of subjects, PASI75 Non-responder: 12
  Number of subjects, PASI75 Responder: 3
12 mg QD, PASI75 non-responder at week 16, above baseline PASI median 6.6
  Number of subjects: 6
12 mg QD, PASI75 non-responder at week 16, above median baseline BD2 level
  Number of subjects: 11
12 mg QD, PASI75 non-responder at week 16, above median baseline IL-17A level
  Number of subjects: 8
12 mg QD, PASI75 non-responder at week 16, above median baseline IL-19 level
  Number of subjects: 6
12 mg QD, PASI75 non-responder at week 16, below baseline PASI median 6.6
  Number of subjects: 15
12 mg QD, PASI75 non-responder at week 16, below median baseline BD2 level
  Number of subjects: 13
12 mg QD, PASI75 non-responder at week 16, below median baseline IL-17A level
  Number of subjects: 13
12 mg QD, PASI75 non-responder at week 16, below median baseline IL-19 level
  Number of subjects: 14
12 mg QD, PASI75 non-responder, BD2-high-PASI-high
  Number of subjects: 5
12 mg QD, PASI75 non-responder, BD2-high-PASI-low
  Number of subjects: 5
12 mg QD, PASI75 non-responder, BD2-low-PASI-high
  Number of subjects: 1
12 mg QD, PASI75 non-responder, BD2-low-PASI-low
  Number of subjects: 10
12 mg QD, PASI75 non-responder, IL-17A-high-PASI-high
  Number of subjects: 5
12 mg QD, PASI75 non-responder, IL-17A-high-PASI-low
  Number of subjects: 3
12 mg QD, PASI75 non-responder, IL-17A-low-PASI-high
  Number of subjects: 1
12 mg QD, PASI75 non-responder, IL-17A-low-PASI-low
  Number of subjects: 12
12 mg QD, PASI75 non-responder, IL-19-high-PASI-high
  Number of subjects: 3
12 mg QD, PASI75 non-responder, IL-19-high-PASI-low
  Number of subjects: 3
12 mg QD, PASI75 non-responder, IL-19-low-PASI-high
  Number of subjects: 2
12 mg QD, PASI75 non-responder, IL-19-low-PASI-low
  Number of subjects: 12
12 mg QD, PASI75 responder at week 16, above baseline PASI median 6.6
  Number of subjects: 20
12 mg QD, PASI75 responder at week 16, above median baseline BD2 level
  Number of subjects: 23
12 mg QD, PASI75 responder at week 16, above median baseline IL-17A level
  Number of subjects: 18

Source: US20240390369A1, “METHODS FOR DETERMINING RESPONSIVENESS TO TYK2 INHIBITORS” (Bristol-Myers Squibb Company, priority 2021, published 2024)
